Assay: Tacrolimus tissue pharmacokinetics, oral vs intra-cecal ingestible device delivery
Assay type: in vivo, Yorkshire-Cross farm swine
Conditions: swine; intra-cecal as compared to oral administration, 12 hours post-dose
Method: The primary objective of this study was to compare the tissue, plasma, rectal sample, and GI content pharmacokinetics of tacrolimus through oral versus intra-cecal ingestible device delivery in normal Yorkshire-Cross farm swine.
No further randomization procedure was employed.
Animals in Group 1 received an ingestible device containing 0.8 mL of vehicle solution (80% alcohol, 20% HCO-60). Animals in Group 2 received orally […] liquid formulation of tacrolimus at 4 mg/0.8 mL per animal (Prograf: 5 mg/mL). Animals in Group 3 received intra-cecally an ingestible device containing tacrolimus at 1 mg in 0.8 mL per ingestible device. […]
Approximately 200˜400 mg of rectal content were collected, if available, with a fecal swab (Copan Diagnostics Nylon Flocked Dry Swabs, 502CS01). The fecal swab was pre-weighed and weighed after collection in the collection tube (Sterile Tube and Cap No Media, PFPM913S), and the sample weight was recorded. […]
For tissue necropsy, small intestine fluid and cecal fluid were collected separately from all the animals into two separate square plastic bottles, and stored at −20° C. The length and diameter of the cecum and the colon was measured from one animal in each group and recorded for reference. […] All samples were weighed, and the tissue sample weights were recorded. […]

mean concentration in the cecum tissue and the proximate colon tissue (FIG. 76): higher
SMILES: C=CC[C@@H]1/C=C(\C)C[C@H](C)C[C@H](OC)[C@H]2O[C@@](O)(C(=O)C(=O)N3CCCC[C@H]3C(=O)O[C@H](/C(C)=C/[C@@H]3CC[C@@H](O)[C@H](OC)C3)[C@H](C)[C@@H](O)CC1=O)[C@H](C)C[C@@H]2OC [tacrolimus]
